In patent publication US20230146395A1, “Substituted Pyrimidines and Uses Thereof” (Verge Analytics, Inc., priority 2020, published 2023) one finds IC50 data, which are given here for three molecules.

SMILES strings stand for the structures. pIC50: −log10 of the molar value.

Format in all cases: biochemical
One test has as its target T1, PI3Kδ (Homo sapiens, UniProt O00329).
T1 construct: Full-length N-terminal; GST (N); host or cells: SF9 cells (baculovirus)
Description: Inhibition of PI3K isoforms: PI3Kδ (microfluidic electrophoresis kinase assay, PIP2/PS substrate). The note with it: p110δ/p85α, ATP 90 μM; read-out: PI3Kd IC50. The procedure: The kinase substrate was prepared by mixing and sonicating fluorescently-labeled phosphatidylinositol 4,5-phosphate (PIP2) with phospho-L-[…]:20 ratio in 50 mM HEPES buffer pH7.5. The kinase reactions were assembled in 384-well plates (Greiner) in a total volume of […] as follows. The kinase proteins were pre-diluted in an assay buffer comprising 50 mM HEPES, pH 7.5, 0.012% CHAPS, 1 mM DTT, 10 mM Na3VaO4, 10 mM 3-GP, 3 mM MgCl2, and 40 mM NaCl2, and dispensed into a 384-well plate (10 μL per well). Test compounds were serially pre-diluted in DMSO and added to the protein samples by acoustic dispensing (Labcyte Echo). The concentration of DMSO was equalized to 1% in all samples. All test compounds were tested at 12 concentrations. The control samples (0%-inhibition in the absence of inhibitor, DMSO only) and 100%-inhibition (in the absence of enzyme) were assembled in replicates of four and were used to calculate %-inhibition in the presence of test compounds. The reactions were initiated by addition of 10 μL of the PIP2/PS substrate supplemented with ATP. The final concentration of enzymes was 0.5 nM (PI3Kα), 1 nM (PI3Kβ), 10 nM (PI3Kγ), and 0.25 nM (PI3Kδ). The final concentration of ATP was 90 μM (PI3Kα), 60 μM (PI3Kβ), 100 μM (PI3Kγ), and 90 μM (PI3Kδ). The final concentration of PIP2/PS substrate was 1 μM (PIP2). The kinase reactions were allowed to proceed for 3 h at room temperature. Following incubation, the reactions were quenched by addition of 50 μL of termination buffer (100 mM HEPES, pH 7.5, 0.01% Triton X-100, 20 mM EDTA). Terminated plates were analyzed on a microfluidic electrophoresis instrument (Caliper LabChip® 3000, Caliper Life Sciences/Perkin Elmer). The change in the relative fluorescence intensity of the PI(4,5)P substrate and PI(3,4,5)P product peaks was measured. The activity in each test sample was determined as the product to sum ratio (PSR): P/(S+P), where P is the peak height of the product, and S is the peak height of the substrate. Percent inhibition (Pinh) was determined using the following equation: Pinh=(PSR0% inh-PSRcompound)/(PSR0% inh-PSR100% inh)*100 in which PSRcompound is the product/sum ratio in the presence of compound, PSR0% inh is the product/sum ratio in the absence of compound, and the PSR100% inh is the product/sum ratio in the absence of the enzyme. […] (Pinh versus compound concentration) were fitted by a four-parameter sigmoid dose-response model using XLfit software (IDBS).

In another test the target is T2, PI3Kα (Homo sapiens, UniProt P42336).
T2 construct: Full-length N-terminal; FLAG (N); host or cells: SF9 cells (baculovirus)
T2 sequence (P42336 whole entry): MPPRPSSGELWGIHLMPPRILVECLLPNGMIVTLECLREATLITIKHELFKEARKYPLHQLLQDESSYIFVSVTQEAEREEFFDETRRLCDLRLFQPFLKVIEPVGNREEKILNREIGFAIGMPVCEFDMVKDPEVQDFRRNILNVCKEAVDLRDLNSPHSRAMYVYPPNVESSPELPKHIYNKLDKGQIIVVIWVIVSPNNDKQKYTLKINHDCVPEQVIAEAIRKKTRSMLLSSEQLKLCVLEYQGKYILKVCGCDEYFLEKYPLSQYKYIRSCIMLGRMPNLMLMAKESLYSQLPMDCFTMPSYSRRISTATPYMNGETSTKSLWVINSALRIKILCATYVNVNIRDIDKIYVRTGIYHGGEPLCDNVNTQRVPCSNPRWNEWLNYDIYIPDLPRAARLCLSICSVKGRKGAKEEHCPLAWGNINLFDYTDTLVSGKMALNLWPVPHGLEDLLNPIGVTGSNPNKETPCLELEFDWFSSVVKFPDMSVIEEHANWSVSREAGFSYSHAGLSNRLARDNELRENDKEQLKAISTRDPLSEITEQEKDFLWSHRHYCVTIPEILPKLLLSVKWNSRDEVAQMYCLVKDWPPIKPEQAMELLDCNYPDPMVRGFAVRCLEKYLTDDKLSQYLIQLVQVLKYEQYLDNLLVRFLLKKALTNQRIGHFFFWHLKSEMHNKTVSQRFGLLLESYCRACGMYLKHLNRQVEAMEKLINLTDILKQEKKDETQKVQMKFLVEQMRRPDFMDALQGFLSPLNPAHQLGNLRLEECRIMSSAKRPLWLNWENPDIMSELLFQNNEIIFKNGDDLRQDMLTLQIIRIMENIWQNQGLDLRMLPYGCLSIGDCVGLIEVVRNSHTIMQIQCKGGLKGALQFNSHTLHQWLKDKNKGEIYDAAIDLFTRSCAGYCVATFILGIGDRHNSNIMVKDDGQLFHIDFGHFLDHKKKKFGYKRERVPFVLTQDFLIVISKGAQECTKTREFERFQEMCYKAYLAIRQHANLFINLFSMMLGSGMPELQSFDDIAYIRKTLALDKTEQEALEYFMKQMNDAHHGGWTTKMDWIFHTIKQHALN
T2 sequence (P27986 whole entry partner): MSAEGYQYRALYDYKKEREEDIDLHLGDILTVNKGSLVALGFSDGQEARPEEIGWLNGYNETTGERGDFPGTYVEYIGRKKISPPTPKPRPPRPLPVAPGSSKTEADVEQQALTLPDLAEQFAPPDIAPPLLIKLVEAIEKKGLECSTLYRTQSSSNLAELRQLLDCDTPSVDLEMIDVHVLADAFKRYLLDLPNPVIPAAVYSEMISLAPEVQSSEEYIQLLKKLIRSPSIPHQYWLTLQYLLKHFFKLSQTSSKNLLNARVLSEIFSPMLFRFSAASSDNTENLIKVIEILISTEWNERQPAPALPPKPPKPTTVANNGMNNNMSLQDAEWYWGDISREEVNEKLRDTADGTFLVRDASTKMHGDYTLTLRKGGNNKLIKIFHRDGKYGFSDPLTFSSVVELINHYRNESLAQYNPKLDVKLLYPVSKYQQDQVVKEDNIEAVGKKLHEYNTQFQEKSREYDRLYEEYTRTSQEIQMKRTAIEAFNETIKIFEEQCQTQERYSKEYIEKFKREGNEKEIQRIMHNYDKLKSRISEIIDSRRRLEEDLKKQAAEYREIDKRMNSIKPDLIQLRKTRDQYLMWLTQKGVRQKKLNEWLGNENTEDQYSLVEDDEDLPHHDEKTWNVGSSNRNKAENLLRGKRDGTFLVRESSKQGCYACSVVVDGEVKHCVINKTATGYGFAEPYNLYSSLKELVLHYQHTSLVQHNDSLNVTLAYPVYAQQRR
Description: Inhibition of PI3K isoforms: PI3Kα (microfluidic electrophoresis kinase assay, PIP2/PS substrate). Conditions: p110α/p85α, ATP 90 μM; read-out: PI3Ka IC50. As to the method:
The kinase substrate was prepared by mixing and sonicating fluorescently-labeled phosphatidylinositol 4,5-phosphate (PIP2) with phospho-L-serine (PS) at 1:20 ratio in 50 mM HEPES buffer pH7.5.
The kinase reactions were assembled in 384-well plates (Greiner) in a total volume of […] as follows. The kinase proteins were pre-diluted in an assay buffer comprising 50 mM HEPES, pH 7.5, 0.012% CHAPS, 1 mM DTT, 10 mM Na3VaO4, 10 mM 3-GP, 3 mM MgCl2, and 40 mM NaCl2, and dispensed into a 384-well plate (10 μL per well). Test compounds were serially pre-diluted in DMSO and added to the protein samples by acoustic dispensing (Labcyte Echo). The concentration of DMSO was equalized to 1% in all samples. All test compounds were tested at 12 concentrations. The control samples (0%-inhibition in the absence of inhibitor, DMSO only) and 100%-inhibition (in the absence of enzyme) were assembled in replicates of four and were used to calculate %-inhibition in the presence of test compounds. The reactions were initiated by addition of 10 μL of the PIP2/PS substrate supplemented with ATP. The final concentration of enzymes was 0.5 nM (PI3Kα), 1 nM (PI3Kβ), 10 nM (PI3Kγ), and 0.25 nM (PI3Kδ). The final concentration of ATP was 90 μM (PI3Kα), 60 μM (PI3Kβ), 100 μM (PI3Kγ), and 90 μM (PI3Kδ). The final concentration of PIP2/PS substrate was 1 μM (PIP2). The kinase reactions were allowed to proceed for 3 h at room temperature. Following incubation, the reactions were quenched by addition of 50 μL of termination buffer (100 mM HEPES, pH 7.5, 0.01% Triton X-100, 20 mM EDTA). Terminated plates were analyzed on a microfluidic electrophoresis instrument (Caliper LabChip® 3000, Caliper Life Sciences/Perkin Elmer). The change in the relative fluorescence intensity of the PI(4,5)P substrate and PI(3,4,5)P product peaks was measured. The activity in each test sample was determined as the product to sum ratio (PSR): P/(S+P), where P is the peak height of the product, and S is the peak height of the substrate. Percent inhibition (Pinh) was determined using the following equation:
Pinh=(PSR0% inh−PSRcompound)/(PSR0% inh−PSR100% inh)*100
in which PSRcompound is the product/sum ratio in the presence of compound, PSR0% inh is the product/sum ratio in the absence of compound, and the PSR100% inh is the product/sum ratio in the absence of the enzyme.

The target of test [1] is T3, Full length human recombinant PIKFYVE (Homo sapiens, UniProt Q9Y2I7).
T3 construct: Full length human recombinant PIKFYVE; purchased Carna Biosciences (Kobe, Japan); host or cells: baculovirus expression system
T3 sequence (Q9Y2I7 whole entry): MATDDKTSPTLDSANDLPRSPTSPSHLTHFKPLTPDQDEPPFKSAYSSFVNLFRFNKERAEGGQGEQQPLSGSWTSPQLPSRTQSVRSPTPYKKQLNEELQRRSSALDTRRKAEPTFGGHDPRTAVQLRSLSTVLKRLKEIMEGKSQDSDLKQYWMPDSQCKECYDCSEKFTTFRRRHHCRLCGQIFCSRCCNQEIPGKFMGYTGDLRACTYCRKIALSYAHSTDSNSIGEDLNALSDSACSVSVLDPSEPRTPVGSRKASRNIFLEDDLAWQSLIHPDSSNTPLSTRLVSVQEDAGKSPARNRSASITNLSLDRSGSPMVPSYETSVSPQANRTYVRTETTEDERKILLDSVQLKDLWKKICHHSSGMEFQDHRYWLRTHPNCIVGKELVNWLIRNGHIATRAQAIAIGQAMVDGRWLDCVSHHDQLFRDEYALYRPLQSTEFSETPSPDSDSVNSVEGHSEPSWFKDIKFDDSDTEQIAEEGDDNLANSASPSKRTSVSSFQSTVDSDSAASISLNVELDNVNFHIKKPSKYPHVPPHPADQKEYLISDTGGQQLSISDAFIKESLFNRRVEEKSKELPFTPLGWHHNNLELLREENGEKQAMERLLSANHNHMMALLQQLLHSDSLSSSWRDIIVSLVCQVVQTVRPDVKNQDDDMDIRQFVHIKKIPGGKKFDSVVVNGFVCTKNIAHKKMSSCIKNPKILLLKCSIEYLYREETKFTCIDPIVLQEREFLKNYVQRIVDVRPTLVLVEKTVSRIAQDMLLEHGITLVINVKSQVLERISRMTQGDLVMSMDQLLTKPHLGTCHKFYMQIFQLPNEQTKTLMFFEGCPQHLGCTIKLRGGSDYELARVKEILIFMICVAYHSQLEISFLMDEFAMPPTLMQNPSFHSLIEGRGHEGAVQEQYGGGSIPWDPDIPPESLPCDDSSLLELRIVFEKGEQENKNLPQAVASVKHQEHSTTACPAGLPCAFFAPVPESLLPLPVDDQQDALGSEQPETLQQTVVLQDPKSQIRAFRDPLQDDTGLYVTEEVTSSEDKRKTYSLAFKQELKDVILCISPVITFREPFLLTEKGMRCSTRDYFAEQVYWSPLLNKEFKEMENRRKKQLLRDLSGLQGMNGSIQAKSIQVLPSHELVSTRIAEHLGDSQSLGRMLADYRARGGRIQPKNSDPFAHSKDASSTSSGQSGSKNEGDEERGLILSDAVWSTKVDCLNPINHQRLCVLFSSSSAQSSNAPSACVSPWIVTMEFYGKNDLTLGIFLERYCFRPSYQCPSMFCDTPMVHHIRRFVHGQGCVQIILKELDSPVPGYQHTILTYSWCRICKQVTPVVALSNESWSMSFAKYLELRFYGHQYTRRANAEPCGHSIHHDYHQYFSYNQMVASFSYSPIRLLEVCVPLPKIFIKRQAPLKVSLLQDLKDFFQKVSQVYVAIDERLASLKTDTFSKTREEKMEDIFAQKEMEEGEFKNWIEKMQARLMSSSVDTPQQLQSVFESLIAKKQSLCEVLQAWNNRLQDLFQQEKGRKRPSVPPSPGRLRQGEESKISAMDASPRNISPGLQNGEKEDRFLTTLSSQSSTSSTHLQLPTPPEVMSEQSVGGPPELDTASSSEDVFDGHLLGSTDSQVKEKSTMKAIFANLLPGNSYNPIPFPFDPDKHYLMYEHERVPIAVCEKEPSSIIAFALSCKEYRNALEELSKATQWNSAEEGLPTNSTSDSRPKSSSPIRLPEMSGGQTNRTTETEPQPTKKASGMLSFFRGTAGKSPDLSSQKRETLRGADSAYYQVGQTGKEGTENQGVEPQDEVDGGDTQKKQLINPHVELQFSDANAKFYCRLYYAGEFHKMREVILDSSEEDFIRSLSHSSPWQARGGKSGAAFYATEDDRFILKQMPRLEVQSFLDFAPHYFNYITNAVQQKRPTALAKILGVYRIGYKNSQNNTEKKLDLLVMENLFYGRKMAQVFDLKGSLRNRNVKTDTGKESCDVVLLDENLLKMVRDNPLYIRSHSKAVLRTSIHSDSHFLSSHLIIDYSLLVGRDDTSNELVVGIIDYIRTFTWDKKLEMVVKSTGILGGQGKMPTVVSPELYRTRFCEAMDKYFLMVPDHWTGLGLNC
Nature of the test: Inhibition of PIKfyve (microfluidic electrophoresis kinase assay, PI3P/PS substrate). The note with it: 12 concentrations. Summed up: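 GST-tagged full-length human PIKFYVE (baculovirus; 2 nM) with fluorescent PI3P/PS (1 μM PI3P) and […] in pH 7.5 HEPES with Mg2+/Mn2+, 1% DMSO, 3 h at room temperature. PI(3,5)P product/substrate ratio read by microfluidic electrophoresis; 12-point % inhibition versus no-enzyme and DMSO controls.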

T1 sequence (O00329 whole entry): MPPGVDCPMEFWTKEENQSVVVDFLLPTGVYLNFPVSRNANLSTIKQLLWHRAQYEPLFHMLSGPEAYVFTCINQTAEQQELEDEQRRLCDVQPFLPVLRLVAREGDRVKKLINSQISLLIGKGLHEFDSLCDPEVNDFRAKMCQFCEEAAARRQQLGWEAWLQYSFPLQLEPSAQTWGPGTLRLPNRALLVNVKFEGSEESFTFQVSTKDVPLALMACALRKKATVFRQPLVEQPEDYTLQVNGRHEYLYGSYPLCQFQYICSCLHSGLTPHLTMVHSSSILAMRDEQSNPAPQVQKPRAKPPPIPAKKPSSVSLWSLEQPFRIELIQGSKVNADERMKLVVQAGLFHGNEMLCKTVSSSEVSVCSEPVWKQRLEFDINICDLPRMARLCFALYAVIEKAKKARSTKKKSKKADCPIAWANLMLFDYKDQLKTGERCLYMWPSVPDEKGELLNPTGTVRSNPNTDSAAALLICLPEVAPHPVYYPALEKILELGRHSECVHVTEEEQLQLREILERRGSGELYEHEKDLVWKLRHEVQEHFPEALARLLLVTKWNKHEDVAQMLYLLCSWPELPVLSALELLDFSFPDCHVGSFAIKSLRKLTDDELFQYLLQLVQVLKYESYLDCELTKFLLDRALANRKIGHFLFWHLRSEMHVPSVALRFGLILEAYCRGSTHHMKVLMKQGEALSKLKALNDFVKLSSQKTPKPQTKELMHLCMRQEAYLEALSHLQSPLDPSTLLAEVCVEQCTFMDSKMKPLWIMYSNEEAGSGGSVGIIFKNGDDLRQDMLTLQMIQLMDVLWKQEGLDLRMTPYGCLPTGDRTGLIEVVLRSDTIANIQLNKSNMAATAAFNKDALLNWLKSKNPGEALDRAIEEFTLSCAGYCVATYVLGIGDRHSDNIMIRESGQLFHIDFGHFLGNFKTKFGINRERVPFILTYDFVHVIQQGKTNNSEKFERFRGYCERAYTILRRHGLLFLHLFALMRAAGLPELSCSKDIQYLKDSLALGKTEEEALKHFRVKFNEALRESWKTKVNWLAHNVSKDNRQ
T1 sequence (P27986 whole entry partner): as the sequence (P27986 whole entry partner) above

As for `CNC(=O)c1cc2nc(Nc3cc(C4CCC4)n[nH]3)nc(N3CCOCC3)c2o1` [Compound 80, 2-((5-cyclobutyl-1H-pyrazol-3-yl)amino)-N-methyl-4-morpholinofuro[3,2-d]pyrimidine-6-carboxamide, hydrogen chloride], the negative-log IC50 (pIC50) at PI3Kδ is 6.34; at PI3Kα, 5.26; in test [1] it was 5.26.

On to `CNC(=O)c1cc2nc(Nc3cc(CC4CCCC4)n[nH]3)nc(N3CCOCC3)c2o1` [Compound 84, 2-((5-(cyclopentylmethyl)-1H-pyrazol-3-yl)amino)-N-methyl-4-morpholinofuro[3,2-d]pyrimidine-6-carboxamide, hydrogen chloride], for which the values for the negative-log IC50 (pIC50) (on PI3Kδ; at PI3Kα; in test [1]) were 6.66, 5.34 and ≤ 4.70, respectively.

Turning to `c1cc(-c2cc3nc(Nc4cc(C5CCC5)n[nH]4)nc(N4CCOCC4)c3o2)ccn1` [Compound 70, N-(5-cyclobutyl-1H-pyrazol-3-yl)-4-morpholino-6-(pyridin-4-yl)furo[3,2-d]pyrimidin-2-amine, hydrogen chloride], the pIC50 at PI3Kδ was 6.79; at PI3Kα, 5.38; in test [1], 6.85.

The pIC50 is the negative decadic logarithm of the IC50, by convention in mol/L.
